What is called DC50 is the concentration at which degradation of the target reaches its halfway point. Broadly, the Dmax is the largest share of the target that was removed.

The source of these data is US20260258039A1, “AROMATIC COMPOUND, METHOD FOR PREPARING SAME, AND USE THEREOF IN PREPARATION OF ESTROGEN RECEPTOR DEGRADER” (Hinova Pharmaceuticals Inc., priority 2022, published 2026).

The target in this assay is T1, ER (Homo sapiens, UniProt P03372).
T1 construct: T47D breast cancer cells were subcultured in cell culture medium; endogenous in cells; host or cells: T47D breast cancer cells
T1 sequence (P03372 1-595): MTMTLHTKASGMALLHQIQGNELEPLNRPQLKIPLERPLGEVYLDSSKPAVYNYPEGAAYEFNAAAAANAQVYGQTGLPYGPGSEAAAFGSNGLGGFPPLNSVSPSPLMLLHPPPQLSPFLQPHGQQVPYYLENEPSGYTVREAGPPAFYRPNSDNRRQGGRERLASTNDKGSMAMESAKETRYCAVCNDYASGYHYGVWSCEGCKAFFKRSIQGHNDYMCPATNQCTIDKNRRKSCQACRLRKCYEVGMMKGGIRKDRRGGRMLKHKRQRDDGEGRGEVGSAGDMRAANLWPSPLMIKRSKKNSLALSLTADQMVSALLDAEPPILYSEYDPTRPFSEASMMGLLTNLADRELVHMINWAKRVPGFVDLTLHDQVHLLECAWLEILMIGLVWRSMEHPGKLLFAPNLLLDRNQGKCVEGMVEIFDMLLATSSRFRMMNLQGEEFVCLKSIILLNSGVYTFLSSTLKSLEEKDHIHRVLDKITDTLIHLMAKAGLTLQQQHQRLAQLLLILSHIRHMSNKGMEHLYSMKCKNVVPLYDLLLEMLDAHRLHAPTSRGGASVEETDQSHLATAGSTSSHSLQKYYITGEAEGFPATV
The assay can be described thus: Degradation activities on ER (ELISA) in T47D breast cancer cells. The format is cell-based. To be noted: T47D cells, 24 h, ELISA; for DC50: concentration required to degrade 50% of the target protein; for Dmax: maximum percentage of target protein degraded. As to the method:
T47D breast cancer cells were subcultured in cell culture medium, and then the cells in good growth condition were seeded into 96-well plates at 80 µL/well, with 2.5×10^4 cells per well. The cells were incubated in a 37° C., 5% CO2 incubator for 3 days. The drug was prepared into a 10 mM stock solution with dimethyl sulfoxide (DMSO). Prior to use, the stock solution was diluted with cell culture medium to obtain six final concentrations (100 nM, 25 nM, 6.25 nM, 1.56 nM, 0.39 nM, and […]), and gently mixed. Additionally, negative control wells (only containing culture medium) and positive control wells (only containing cells and DMSO) were included. After the cells were incubated in the incubator for 24 h, the cells were rinsed once with ice-cold 1×PBS. […] The plate was sealed with plastic film, and incubated in a 37° C. incubator for 2 h. The film was removed. 200 μL of 1× washing buffer was added to each well, and then the plate was shaken for 5 min. The washing buffer was discarded, and the plate was pat-dried. The plate was washed four times. 100 μL of freshly prepared detection antibody (green) was added to each well of the ELISA plate. The plate was sealed with plastic film, and then incubated in a 37° C. incubator for 1 h. The film was removed, and the detection antibody was discarded. The plate was pat-dried. 200 μL of 1× washing buffer was added to each well, and then the plate was shaken for 5 min. The washing buffer was discarded, and the plate was pat-dried. The plate was washed four times. 100 μL of freshly prepared HRP-labeled secondary antibody (red) was added to each well of the ELISA plate. The plate was sealed with plastic film, and incubated in a 37° C. incubator for 30 min. The film was removed, the secondary antibody was discarded, and the plate was pat-dried, followed by adding 200 μL of 1× washing buffer to each well. The plate was shaken for 5 min, and the washing buffer was discarded before pat-drying the plate. The plate was washed four times. 100 μl of TMB substrate was added to each well of the ELISA plate, followed by incubating in a 37° C. incubator for 5 min. 100 μL of STOP solution was added to each well of the ELISA plate, and the plate was gently shaken for a few seconds. The bottom of each well was wiped with lint-free cloth. Within 30 min after adding the STOP solution, the absorbance was read at 450 nm. […] The data were analyzed using the Dose-response equation in GraphPad Prism8 software to obtain the DC50 and Dmax values, and both of them are important indicators for measuring the degradation activities of compounds on target proteins. […] The Dmax value represents the maximum percentage of target protein that can be degraded by the compound.

Molecules are shown by their SMILES. Where two headings read alike, the source gives them in different places.

`O=C1CCC(N2Cc3cc(N4CC5(CCN(CC6CCN(c7ccc([C@@H]8c9ccc(O)cc9OC[C@@H]8c8cc(F)ccc8F)cc7)CC6)CC5)C4)ccc3C2=O)C(=O)N1` (stereo partly drawn) [Example 47, 3-(5-(7-((1-(4-(cis-3-(2,5-difluorophenyl)-7-hydroxychroman-4-yl)phenyl)piperidin-4-yl)methyl)-2,7-diazaspiro[3.5]nonane-2-yl)-1-oxoisoinodolin-2-yl)piperidin-2,6-dione] returned a DC50 of 10 to 50 nM. Besides, under “read-out: Dmax”, the greatest degradation seen (Dmax) is 50 to 75%.
`O=C1CCC(N2Cc3cc(N4CC5(CCN(CC6CCN(c7c(F)cc([C@@H]8c9ccc(O)cc9OC[C@@H]8c8cccc(F)c8F)cc7F)CC6)CC5)C4)ccc3C2=O)C(=O)N1` (stereo partly drawn) [Example 48, 3-(5-(7-((1-(2,6-difluoro-4-(cis-3-(2,3-difluorophenyl)-7-hydroxychroman-4-yl)phenyl)piperidin-4-yl)methyl)-2,7-diazaspiro[3.5]nonane-2-yl)-1-oxoisoinodolin-2-yl)piperidin-2,6-dione]: the 50% degradation concentration (DC50) was below 10 nM. Also, the Dmax (read-out: Dmax) lay in the range of 50 to 75%.
Taken in the same sequence, the figures for `O=C1CCC(N2Cc3cc(N4CC5(CCN(CC6CCN(c7c(F)cc([C@@H]8c9ccc(OCc%10ccccc%10)cc9OC[C@@H]8c8ccccc8F)cc7F)CC6)CC5)C4)ccc3C2=O)C(=O)N1` (stereo partly drawn) [Example 51, 3-(5-(7-((1-(4-(cis-7-(benzyloxy)-3-(2-fluorophenyl)chroman-4-yl)-2,6-difluorophenyl)piperidin-4-yl)methyl)-2,7-diazaspiro[3.5]nonane-2-yl)-1-oxoisoinodolin-2-yl)piperidin-2,6-one] were above 100 nM and below 50%.
As for `O=C1CCC(N2Cc3cc(N4CC5(CCN(CC6CCN(c7c(F)cc(C8=C(c9ccccc9F)COc9cc(OCc%10ccccc%10)ccc98)cc7F)CC6)CC5)C4)ccc3C2=O)C(=O)N1` (centres unmarked) [Example 52], the DC50 is above 100 nM. Further, under “read-out: Dmax”, the Dmax was below 50%.
`O=C1CCC(N2Cc3cc(N4CCC5(CCN(C6CCN(c7ccc([C@@H]8c9ccc(O)cc9CC[C@@H]8c8ccccc8)cc7)CC6)C5)C4)ccc3C2=O)C(=O)N1` (some centres unmarked) [Example 66, 3-(5-(7-(1-(4-(6-hydroxyl-2-phenyl-1,2,3,4-tetrahydronaphthalen-1-yl)phenyl)piperidin-4-yl)-2,7-diazaspiro[4.4]nonane-2-yl)-1-oxoisoinodolin-2-yl)piperidin-2,6-dione]: the half-maximal degradation concentration (DC50) is above 100 nM. Moreover, under “read-out: Dmax”, the maximal degradation (Dmax) is below 50%.
`O=C1CCC(N2Cc3cc(N4CCC(N5CC6(CCN(c7ccc([C@@H]8c9ccc(O)cc9CC[C@@H]8c8ccccc8F)cc7F)CC6)C5)CC4)ccc3C2=O)C(=O)N1` (stereo partly drawn) [Example 67, 3-(5-(4-(7-(2-fluoro-4-((1,2-cis)-2-(2-fluorophenyl)-6-hydroxyl-1,2,3,4-tetrahydronaphthalen-1-yl)phenyl)-2,7-diazaspiro[3.5]nonane-2-yl)piperidin-1-yl)-1-oxoisoinodolin-2-yl)pyridine-2,6-dione] returned a DC50 below 10 nM. Besides, the Dmax (read-out: Dmax) was above 75%.
As for `O=C1CCC(N2Cc3cc(N4CCC(N5CC6(CCN(c7ccc([C@@H]8c9ccc(O)cc9OC[C@@H]8c8ccccc8F)cc7F)CC6)C5)CC4)ccc3C2=O)C(=O)N1` (stereo partly drawn) [Example 68, 3-(5-(4-(7-(2-fluoro-4-((3,4-cis)-3-(2-fluorophenyl)-7-hydroxyl-chroman-4-yl)phenyl)-2,7-diazaspiro[3.5]nonane-2-yl)piperidin-1-yl)-1-oxoisoinodolin-2-yl)pyridine-2,6-dione], the 50% degradation concentration (DC50) is below 10 nM. Also, for the setting “read-out: Dmax”, the Dmax is above 75%.
As for `O=C1CCC(N2Cc3cc(N4CCC(N5CC6(CCN(c7ccc([C@@H]8c9ccc(O)cc9CC[C@@H]8c8ccccc8)cc7F)CC6)C5)CC4)ccc3C2=O)C(=O)N1` (stereo partly drawn) [Example 69, 3-(5-(4-(7-(2-fluoro-4-((1,2-cis)-6-hydroxyl-2-phenyl-1,2,3,4-tetrahydronaphthalen-1-yl)phenyl)-2,7-diazaspiro[3.5]nonane-2-yl)piperidin-1-yl)-1-oxoisoinodolin-2-yl)pyridine-2,6-dione], the DC50 was below 10 nM. The Dmax (read-out: Dmax) was above 75%.
The compound `O=C1CCC(N2Cc3cc(N4CC5(CCN(CC6CCN(c7ccc([C@H]8c9ccc(O)cc9OC[C@H]8c8c(F)cccc8F)cc7F)CC6)CC5)C4)ccc3C2=O)C(=O)N1` (stereo partly drawn) [Example 71, 3-(5-(7-((1-(4-((3R,4S)-3-(2,6-difluorophenyl)-7-hydroxychroman-4-yl)-2-fluorophenyl)piperidin-4-yl)methyl)-2,7-diazaspiro[3.5]nonane-2-yl)-1-oxoisoinodolin-2-yl)piperidin-2,6-dione] returned a DC50 above 100 nM. The greatest degradation seen (Dmax) (read-out: Dmax) is below 50%.
Turning to `O=C1CCC(N2Cc3cc(N4CC5(CCN(CC6CCN(c7ccc([C@H]8c9ccc(O)cc9OC[C@H]8c8c(F)cccc8F)cc7)CC6)CC5)C4)ccc3C2=O)C(=O)N1` (stereo partly drawn) [Example 72, 3-(5-(7-((1-(4-((3R,4S)-3-(2,6-difluorophenyl)-7-hydroxychroman-4-yl)phenyl)piperidin-4-yl)methyl)-2,7-diazaspiro[3.5]nonane-2-yl)-1-oxoisoindol-2-yl)piperidin-2,6-dione], the Dmax (read-out: Dmax) was below 50%.
Take `O=C1CCC(N2Cc3cc(N4CC5(CCN(CC6CCN(c7ccc([C@@H]8c9ccc(O)cc9OC[C@@H]8c8c(F)cccc8F)cc7)CC6)CC5)C4)ccc3C2=O)C(=O)N1` (stereo partly drawn) [Example 77, 3-(5-(7-((1-(4-((3S,4R)-3-(2,6-difluorophenyl)-7-hydroxychroman-4-yl)phenyl)piperidin-4-yl)methyl)-2,7-diazaspiro[3.5]nonane-2-yl)-1-oxoisoinodolin-2-yl)piperidin-2,6-dione]: the maximal degradation (Dmax) result was “B (B: 75-50%)”.
Take `O=C1CC[C@@H](N2Cc3cc(N4CC5(CCN(CC6CCN(c7ccc([C@@H]8c9ccc(O)cc9OC[C@@H]8c8ccccc8F)cc7)CC6)CC5)C4)ccc3C2=O)C(=O)N1` [Example 90, (R)-3-(5-(7-((1-(4-((3S, 4R)-3-(2-fluorophenyl)-7-hydroxychroman-4-yl)phenyl)piperidin-4-yl)methyl)-2,7-diazaspiro[3.5]nonane-2-yl)-1-oxoisoinodolin-2-yl)piperidin-2,6-dione]: the 50% degradation concentration (DC50) is above 100 nM. In addition, the maximal degradation (Dmax) (read-out: Dmax) is below 50%.
Regarding `O=C1CC[C@H](N2Cc3cc(N4CC5(CCN(CC6CCN(c7ccc([C@@H]8c9ccc(O)cc9OC[C@@H]8c8ccccc8F)cc7)CC6)CC5)C4)ccc3C2=O)C(=O)N1` [Example 91, (S)-3-(5-(7-((1-(4-((3S, 4R)-3-(2-fluorophenyl)-7-hydroxychroman-4-yl)phenyl)piperidin-4-yl)methyl)-2,7-diazaspiro[3.5]nonane-2-yl)-1-oxoisoinodolin-2-yl)piperidin-2,6-dione], the DC50 is below 10 nM. Also, the Dmax (read-out: Dmax) is above 75%.
For `O=C1CCC(N2Cc3cc(N4CC5(CCN(CC6CCN(c7ccc([C@@H]8c9ccc(O)cc9OC[C@@H]8CC(F)(F)F)cc7)CC6)CC5)C4)ccc3C2=O)C(=O)N1` (stereo partly drawn) [Example 92, 3-(5-(7-((1-(4-(cis-7-hydroxyl-3-(2,2,2-trifluoroethyl)chroman-4-yl)phenyl)piperidin-4-yl)methyl)-2,7-diazaspiro[3.5]nonane-2-yl)-1-oxoisoinodolin-2-yl)piperidin-2,6-dione] the same measures were 10 to 50 nM and 50 to 75%.
